One assay has as its system PC3 (prostate). The assay is described as follows: MTT in vitro cytotoxic activity assay, PC3. The class given is cell-based. The note with it: Homo sapiens; cells exposed for 96 hours; 50% inhibition of cell proliferation; read-out: Cytotoxicity activity IC50, PC3 (prostate). The protocol:
(§1) Compounds 1-16 were screened for their in vitro cytotoxic activity utilizing a 3-(4,5-dimethyl-thiazol-2-yl)-2,5-diphenyltetrazolium bromide (MTT) assay against selected cancer human cell lines consisting of PC3 (prostate), HCT116 (colon), A375 (melanoma), H1299 (lung), MIAPaCa-2 (pancreas), HL60 (leukemia), MCF7 (breast), MDA-MB-231 (breast) (T. Mosmann, J. Immunol. Meth., 1983, 65, 55-63). The cells were cultured at 37° C. in RMPI1640 medium supplemented with 10% fetal bovine serum, 50 IU/mL penicillin, and 50 μg/mL streptomycin in a 5% CO2 incubator. All cells were sub-cultured 3 times/week by trypsinisation. Viable cells were seeded and allowed to adhere for 12 h before a test drug was added in 96-well plates at an initial density of 1.0×10^5 cells/mL. Tumor cell lines were separately exposed to various concentrations of the tested compounds followed by incubation at a temperature of 37° C. during 96 hours inside a medium of fresh RMPI 1640. Cells were subsequently incubated at 37° C. using MTT at 0.5 mg/mL during 4 hours. After removal of supernatant, formazan crystals were dissolved in isopropanol and the optical density was measured at 570 nm. CX-4945 was used as a positive control.

The next assay relates to HCT116 (colon). Description: MTT in vitro cytotoxic activity assay, HCT116. The note with it: Homo sapiens, HCT-116; cells exposed for 96 hours; 50% inhibition of cell proliferation; read-out: Cytotoxicity activity IC50, HCT116 (colon). The format is cell-based. The method, then:
as §1

Another assay relates to A375 (melanoma). The assay is described as follows: MTT in vitro cytotoxic activity assay, A375. The format is cell-based. The settings on record: Homo sapiens, A-375; cells exposed for 96 hours; 50% inhibition of cell proliferation; read-out: Cytotoxicity activity IC50, A375 (melanoma). The method, then:
as §1

Another assay deals with H1299 (lung). Description: MTT in vitro cytotoxic activity assay, H1299. The settings on record: Homo sapiens, NCI-H1299; cells exposed for 96 hours; 50% inhibition of cell proliferation; read-out: Cytotoxicity activity IC50, H1299 (lung). The format is cell-based. The method, then:
as §1

The test system of another assay is MIAPaCa-2 (pancreas). The assay is described as follows: MTT in vitro cytotoxic activity assay, MIAPaCa-2. The class given is cell-based. The note with it: Homo sapiens, MIA PaCa-2; cells exposed for 96 hours; 50% inhibition of cell proliferation; read-out: Cytotoxicity activity IC50, MIAPaCa-2 (pancreas). The method, then:
as §1

The subject of the next assay is HL60 (leukemia). Description: MTT in vitro cytotoxic activity assay, HL60. The format is cell-based. The settings on record: Homo sapiens, HL-60; cells exposed for 96 hours; 50% inhibition of cell proliferation; read-out: Cytotoxicity activity IC50, HL60 (leukemia). The protocol:
as §1

Another assay has as its system MCF7 (breast). Description: MTT in vitro cytotoxic activity assay, MCF7. The format is cell-based. The settings on record: Homo sapiens, cells exposed for 96 hours, 50% inhibition of cell proliferation, read-out: Cytotoxicity activity IC50, MCF7 (breast). The method, then: as §1
A further assay has as its system MDA-MB-231 (breast). Description: MTT in vitro cytotoxic activity assay, MDA-MB-231. The format is cell-based. The settings on record: Homo sapiens, cells exposed for 96 hours, 50% inhibition of cell proliferation, read-out: Cytotoxicity activity IC50, MDA-MB-231 (breast). The protocol: as §1
Assay [1] has as its target T1, recombinant human CK2 (RRββ-holoenzyme) (Homo sapiens, UniProt P68400).
T1 construct: purchased Millipore
Description: CK2 Kinase Assay (radiometric, [γ-33P] ATP). The format is biochemical. The note with it: final ATP concentration 15 μM; 10 min at 30° C.; read-out: protein kinase CK2 IC50. The method, then: CK2 Kinase Assay was conducted using the protocol as described in Pierre F. et al; J. Med. Chem. 2011, 54, 635-654. The tested compounds in aqueous solution were added at a volume of 10 μL to a reaction mixture comprising 10 μL of assay dilution buffer (ADB; 20 mM MOPS, pH 7.2, 25 mM β-glycerol phosphate, 5 mM EGTA, 1 mM sodium orthovanadate, and 1 mM dithiothreitol), 10 μL of substrate peptide (RRRDDDSDDD, dissolved in ADB at a concentration of 1 mM), 10 μL of recombinant human CK2 (RRββ-holoenzyme, 25 ng dissolved in ADB; Millipore). Reactions were initiated by the addition of 10 μL of ATP solution (90% 75 mMMgCl2, 75 μM ATP (final ATP concentration: 15 μM) dissolved in ADB; 10% [γ-33P] ATP (stock 1mCi/100 μL; 3000 Ci/mmol (Perkin-Elmer) and maintained for 10 min at 30° C. The reactions were quenched with 100 μL of 0.75% phosphoric acid and then transferred to and filtered through a phosphor cellulose filter plate (Millipore). After washing each well five times with 0.75% phosphoric acid, the plate was dried under vacuum for 5 min and, following the addition of 15 μL of scintillation fluid to each well, the residual radioactivity was measured using a Wallac luminescence counter. The IC50 values were derived from eight concentrations of test inhibitors.

Broadly, the IC50 is the midpoint of a concentration-inhibition curve.

T1 sequence (P68400 whole entry): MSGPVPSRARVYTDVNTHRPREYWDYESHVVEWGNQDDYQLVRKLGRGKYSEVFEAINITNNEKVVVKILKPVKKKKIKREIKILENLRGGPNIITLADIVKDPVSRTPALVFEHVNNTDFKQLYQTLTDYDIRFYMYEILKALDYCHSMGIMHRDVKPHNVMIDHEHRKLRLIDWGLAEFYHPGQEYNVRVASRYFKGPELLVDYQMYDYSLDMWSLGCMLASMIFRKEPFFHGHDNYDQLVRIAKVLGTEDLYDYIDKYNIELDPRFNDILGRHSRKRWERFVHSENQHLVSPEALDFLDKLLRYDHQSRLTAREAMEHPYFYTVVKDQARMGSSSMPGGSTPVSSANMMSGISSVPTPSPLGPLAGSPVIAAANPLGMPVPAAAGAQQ
T1 sequence (P67870 whole entry partner): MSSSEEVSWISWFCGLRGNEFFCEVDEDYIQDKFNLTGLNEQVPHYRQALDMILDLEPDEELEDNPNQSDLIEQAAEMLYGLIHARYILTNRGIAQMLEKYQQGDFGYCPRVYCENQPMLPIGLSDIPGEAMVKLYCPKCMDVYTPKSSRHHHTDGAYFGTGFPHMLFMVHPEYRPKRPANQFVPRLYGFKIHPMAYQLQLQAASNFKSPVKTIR

Turning to `Clc1cccc(Nc2c3ccncc3nc3c2nn2cnccc32)c1` [Compound 1, N-(3-chlorophenyl)pyrimido[1′,6′:1,5]pyrazolo[4,3-b][1,7]naphthyridin-10-amine], the IC50 with PC3 (prostate) was 1500 nM; with HCT116 (colon), 1300 nM; in the assay on A375 (melanoma) it was 3200 nM; in the assay on H1299 (lung), 2900 nM; in the assay on MIAPaCa-2 (pancreas) it was 1200 nM; in the assay with HL60 (leukemia), 2700 nM. The IC50 was 6500 nM in the assay on MCF7 (breast), 5100 nM in the assay on MDA-MB-231 (breast) and 92 nM in assay [1].

For the origin of these results see patent US12173005B1, “Pyrimido[1′,6′:1,5]pyrazolo[4,3-b][1,7]naphthyridine compounds as CK2 inhibitors” (KING FAISAL UNIVERSITY, priority 2023, dated 2024).
